Substitutions are numbered along the chain they refer to. Values after ≈ are worked out from the molar mass of the structure shown. Where two headings read alike, the source gives them in different places.
Legend:
E. coli DHFR (EcDHFR) = biological target: T1, E. coli DHFR (EcDHFR) (Escherichia coli, UniProt P0ABQ4); assay: biochemical
T1 construct: E. coli DHFR gene (UniProtKB:P0ABQ4) and dfrA1 gene (UniProtKB:A4GRC7) were synthesized and cloned in pET-41a (+) vector; made in house; host or cells: E. coli BL21(DE3)
Description: (§1) The assay was performed at room temperature using the Shimadzu UV/visible spectrophotometer. A standard reaction buffer contained 20 mM TES, pH 7.0, 50 mM KCl, 10 mM β-mercapthoethanol, 0.5 mM EDTA, and 1 mg/ml BSA. […] All measurements were performed in triplicate, from at least two independent experiments.

[1] = system: E. coli BL21(DE3) strain overexpressing DfrA5; assay: Antibacterial activity (MIC); assay type: cell-based; details: Escherichia coli
[2] = system: E. coli JW0451 acrB mutant strain; assay: microbe, parasite or virus in culture; assay type: cell-based; details: for MIC: w/o SMX, 80% inhibition of growth, 18 to 20 hours, 37°C
Description: (§2) Preparation, handling of cultures and the antibiotic susceptibility testing was performed according to CLSI guidelines. […] The compounds at the highest concentrations alone and paired with Sulfamethoxazole (1:19 w/w ratio) were then added to the first well before being serially diluted (2-fold) throughout the plate, leaving the last well with broth only (negative growth control). Next, 50 μl of the inoculum was added to each well.

E. coli BW25113 = assay: microbe, parasite or virus in culture; assay type: cell-based; details: for MIC: Escherichia coli, 80% inhibition of growth
Description: as §2

EcDHFR = biological target: T2, EcDHFR (Escherichia coli, UniProt P0ABQ4); assay type: binding
T2 construct: E. coli DHFR gene (UniProtKB:P0ABQ4) and dfrA1 gene (UniProtKB:A4GRC7) were synthesized and cloned in pET-41a (+) vector; made in house; host or cells: E. coli BL21(DE3)
Description: (§3) In all, 200 µg of purified enzyme was preincubated for 18 h without and with a 10× molar excess of the ligand(s) (NADPH, TMP or PLA) in 20 mM Hepes 7.5, 100 mM KCl, 5% glycerol, ±2.0% DMSO and 2 mM DTT buffer. […] Changes in intrinsic fluorescence intensity (measured ratio of absorbance at 350 nm over 330 nm) from tryptophan residues were used to calculate derivatives using the evaluation features provided by the Tycho instrument.

DfrA1 = biological target: T3, DfrA1 (Escherichia coli, UniProt P00382); assay type: binding, E. coli
T3 construct: dfrA1 gene (UniProtKB:A4GRC7) were synthesized and cloned in pET-41a (+) vector; made in house; host or cells: E. coli BL21(DE3)
T3 sequence (P00382 1-157): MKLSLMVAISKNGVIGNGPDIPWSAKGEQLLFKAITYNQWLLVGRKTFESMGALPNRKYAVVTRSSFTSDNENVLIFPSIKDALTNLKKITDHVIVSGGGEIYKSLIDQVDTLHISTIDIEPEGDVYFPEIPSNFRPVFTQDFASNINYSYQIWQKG
Description: as §3

EcDHFR D27E/L28Q = biological target: T4, EcDHFR D27E/L28Q (Escherichia coli, UniProt P0ABQ4, D27E/L28Q); assay: Enzyme inhibition assay (NADPH oxidation, 340 nm); assay type: biochemical
T4 construct: using E. coli DHFR template previously synthesized by GeneScript; made in house; host or cells: E. coli BL21(DE3)
T4 sequence (P0ABQ4 1-159 D27E/L28Q): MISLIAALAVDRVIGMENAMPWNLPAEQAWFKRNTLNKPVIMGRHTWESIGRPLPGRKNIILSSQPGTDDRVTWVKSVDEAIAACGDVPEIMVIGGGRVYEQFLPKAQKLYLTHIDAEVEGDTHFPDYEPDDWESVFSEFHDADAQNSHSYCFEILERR
Description: as §1

EcDHFR L28Q = biological target: T5, EcDHFR L28Q (Escherichia coli, UniProt P0ABQ4, L28Q); assay: Enzyme inhibition assay (NADPH oxidation, 340 nm); assay type: biochemical
T5 construct: using E. coli DHFR template previously synthesized by GeneScript; made in house; host or cells: E. coli BL21(DE3)
T5 sequence (P0ABQ4 1-159 L28Q): T4 sequence (P0ABQ4 1-159 D27E/L28Q) with E27D
Description: as §1

EcDHFR D27E = biological target: T6, EcDHFR D27E (Escherichia coli, UniProt P0ABQ4, D27E); assay: Enzyme inhibition assay (NADPH oxidation, 340 nm); assay type: biochemical
T6 construct: using E. coli DHFR template previously synthesized by GeneScript; made in house; host or cells: E. coli BL21(DE3)
T6 sequence (P0ABQ4 1-159 D27E): T4 sequence (P0ABQ4 1-159 D27E/L28Q) with Q28L
Description: as §1

DfrA5 [3] = biological target: T7, DfrA5 (Escherichia coli, UniProt P11731); assay: biochemical; set-up: species or system E. coli
Description: as §1

[4] = remark limiting MST studies
DfrA1 and DfrA5 = assay type: biochemical, E. coli; details: range over DfrA1 and DfrA5
Description: as §1

DfrA5 [5] = biological target: T7, DfrA5; assay type: binding, E. coli; set-up: E. coli dfrA5 gene (UniProtKB:A0A4Y6L037) was synthesized and cloned in pET-24a (+) vector with the same restriction sites; 6xHis tag (C); made in house; host or cells: E. coli BL21(DE3)
Description: as §3, with “instrument. The inflection temperature (Ti) as a marker of protein structural integrity was determined by the first derivative of the signal (ratio of 350 nm/330 nm).” for “instrument.”

[6] = system: E. coli BL21(DE3) strain overexpressing DfrA1; assay: Antibacterial activity (MIC); assay type: cell-based; details: Escherichia coli
[7] = system: E. coli BL21(DE3) strain overexpressing EcDHFR wt; assay: Antibacterial activity (MIC); assay type: cell-based; details: Escherichia coli, w/o SMX
[8] = binary complex, 10× molar excess of ligand

## CCc1nc(N)nc(N)c1C#CC(C)c1cc(-c2ccc(C(N)=O)cc2)ccc1Cl (centres unmarked) [UCP1228]
E. coli DHFR (EcDHFR)
  Ki: 2.73 ± 0.09 nM
[1]; w/ SMX (1:19)
  MIC: 20 µg/mL (≈ 47.6 µM)
[1]; w/o SMX
  MIC: > 20 µg/mL
[2]; BW25113 w/o SMX vs JW0451 w/o SMX
  Fold difference in MIC: 8
[2]; Escherichia coli
  MIC: 1.25 µg/mL (≈ 2.98 µM)
[2]
  MIC: 0.625 µg/mL (≈ 1.49 µM)
E. coli BW25113; BW25113 w/o SMX vs w/ SMX
  Fold difference in MIC: 16
E. coli BW25113; BW25113, w/ SMX (1:19)
  MIC: 0.625 µg/mL (≈ 1.49 µM)
E. coli BW25113; BW25113, w/o SMX, 18 to 20 hours, 37°C
  MIC: 10 µg/mL (≈ 23.8 µM)
EcDHFR; [8]
  Ti 1: 65.5 ± 4.6 °C
  Ti 2: 76.5 ± 2.5 °C
  Δ1 (Ti shift vs apo): 15.9 °C
  Δ2 (Ti shift vs apo): 16.3 °C
EcDHFR; ternary complex, +NADPH
  Ti 1: 64.3 ± 0.1 °C
  Ti 2: 75.7 ± 1.6 °C
  Δ1 (Ti shift vs apo): 14.7 °C
  Δ2 (Ti shift vs apo): 15.5 °C
DfrA1; [8]
  Ti: 55.4 ± 1.7 °C
  Δ (Ti shift vs apo): 5.6 °C
DfrA1; ternary complex, +NADPH
  Ti: 66.5 ± 3.3 °C
  Δ (Ti shift vs apo): 16.7 °C
EcDHFR D27E/L28Q
  Ki: 189 ± 5.36 nM
EcDHFR D27E/L28Q; combinatorial mutant D27E/L28Q
  fold loss in affinities relative to EcDHFR: 69 fold
EcDHFR L28Q
  Ki: 10.5 ± 0.69 nM
EcDHFR D27E
  Ki: 11.8 ± 0.4 nM
EcDHFR D27E; D27E substitution
  fold increase in Ki over EcDHFR: 4 fold
DfrA5 [3]
  Ki: 20.1 ± 0.39 nM
[4]
  solubility: low
DfrA1 and DfrA5
  fold loss of activity against DfrA1 and DfrA5 compared to EcDHFR: 10–14 fold
DfrA5 [5]; [8]
  Δ (Ti shift vs apo): 3.7 °C
DfrA5 [5]; ternary complex, +NADPH
  Ti: 77.3 ± 4.7 °C
  Δ (Ti shift vs apo): 11 °C
[6]; w/ SMX (1:19)
  MIC: 20 µg/mL (≈ 47.6 µM)
[6]; w/o SMX
  MIC: > 20 µg/mL
[7]
  MIC: 20 µg/mL (≈ 47.6 µM)

— article PMC9106665 (Communications Biology, 2022)
